Data published in PMC4140284, “Human UTY(KDM6C) Is a Male-specific N^ϵ-Methyl Lysyl Demethylase” (The Journal of Biological Chemistry, 2014).
One block for each compound: values may come before it.

Key:
[1] = test system: partially phosphorylated UTY(KDM6C); experiment: 2OG turnover by 1H NMR, partially phosphorylated UTY(KDM6C); type: biochemical, human; details: 10 μM, in 28 min
[2] = test system: UTY(KDM6C) dephosphorylated in vitro using λ-phosphatase; experiment: 2OG turnover by 1H NMR, dephosphorylated UTY(KDM6C); type: biochemical, human; details: UTY(KDM6C) dephosphorylated with λ-phosphatase, 10 μM, in 28 min
UTY(KDM6C) [3] = experiment: Inhibition of H3K27Me3 peptide demethylation, UTY(KDM6C); type: biochemical, human; details: 10 μM inhibitor, 15 min preincubation, 20 min at 37 °C
Protocol: (§1) Reaction components were premixed in two batches ((i) enzyme, Fe(II), and ascorbate and (ii) 2OG and peptide), and reactions were initiated by mixing the enzyme and substrate mix. Reactions were incubated at 37 °C for the indicated times before being quenched with methanol in a 1:1 ratio.
(§2) For inhibition assays, the same enzyme/Fe(II)/ascorbate mixture was preincubated with 10 μM inhibitor for 15 min before the reaction was initiated by the addition of the peptide substrate solution. Reactions were quenched with 1:1 methanol after 20 min at 37 °C.
(§3) Product formation was assessed by MALDI-TOF MS. One microliter of quenched reaction was mixed with 1 μl of α-cyano-4-hydroxycinnamic acid and spotted onto a MALDI-TOF plate for analysis using a MALDI micro-MX mass spectrometer (Waters) in reflectron positive ion mode with pulse voltage 1250 V, detector voltage 2750 V, and mass suppression 1000 Da. Data were analyzed using MassLynx version 4.0. For inhibitor assays, inhibition levels were measured relative to an inhibitor-free reaction.

KDM6A [4] = molecular target: T1, KDM6A (Homo sapiens, UniProt O15550); experiment: Inhibition of H3K27Me3 peptide demethylation, KDM6A; type: biochemical; details: 10 μM inhibitor, 15 min preincubation, 20 min at 37 °C
T1 construct: KDM6B and KDM6A plasmids were used as described previously; made in house; host or cells: Escherichia coli BL21 (DE3)
T1 sequence (O15550 whole entry): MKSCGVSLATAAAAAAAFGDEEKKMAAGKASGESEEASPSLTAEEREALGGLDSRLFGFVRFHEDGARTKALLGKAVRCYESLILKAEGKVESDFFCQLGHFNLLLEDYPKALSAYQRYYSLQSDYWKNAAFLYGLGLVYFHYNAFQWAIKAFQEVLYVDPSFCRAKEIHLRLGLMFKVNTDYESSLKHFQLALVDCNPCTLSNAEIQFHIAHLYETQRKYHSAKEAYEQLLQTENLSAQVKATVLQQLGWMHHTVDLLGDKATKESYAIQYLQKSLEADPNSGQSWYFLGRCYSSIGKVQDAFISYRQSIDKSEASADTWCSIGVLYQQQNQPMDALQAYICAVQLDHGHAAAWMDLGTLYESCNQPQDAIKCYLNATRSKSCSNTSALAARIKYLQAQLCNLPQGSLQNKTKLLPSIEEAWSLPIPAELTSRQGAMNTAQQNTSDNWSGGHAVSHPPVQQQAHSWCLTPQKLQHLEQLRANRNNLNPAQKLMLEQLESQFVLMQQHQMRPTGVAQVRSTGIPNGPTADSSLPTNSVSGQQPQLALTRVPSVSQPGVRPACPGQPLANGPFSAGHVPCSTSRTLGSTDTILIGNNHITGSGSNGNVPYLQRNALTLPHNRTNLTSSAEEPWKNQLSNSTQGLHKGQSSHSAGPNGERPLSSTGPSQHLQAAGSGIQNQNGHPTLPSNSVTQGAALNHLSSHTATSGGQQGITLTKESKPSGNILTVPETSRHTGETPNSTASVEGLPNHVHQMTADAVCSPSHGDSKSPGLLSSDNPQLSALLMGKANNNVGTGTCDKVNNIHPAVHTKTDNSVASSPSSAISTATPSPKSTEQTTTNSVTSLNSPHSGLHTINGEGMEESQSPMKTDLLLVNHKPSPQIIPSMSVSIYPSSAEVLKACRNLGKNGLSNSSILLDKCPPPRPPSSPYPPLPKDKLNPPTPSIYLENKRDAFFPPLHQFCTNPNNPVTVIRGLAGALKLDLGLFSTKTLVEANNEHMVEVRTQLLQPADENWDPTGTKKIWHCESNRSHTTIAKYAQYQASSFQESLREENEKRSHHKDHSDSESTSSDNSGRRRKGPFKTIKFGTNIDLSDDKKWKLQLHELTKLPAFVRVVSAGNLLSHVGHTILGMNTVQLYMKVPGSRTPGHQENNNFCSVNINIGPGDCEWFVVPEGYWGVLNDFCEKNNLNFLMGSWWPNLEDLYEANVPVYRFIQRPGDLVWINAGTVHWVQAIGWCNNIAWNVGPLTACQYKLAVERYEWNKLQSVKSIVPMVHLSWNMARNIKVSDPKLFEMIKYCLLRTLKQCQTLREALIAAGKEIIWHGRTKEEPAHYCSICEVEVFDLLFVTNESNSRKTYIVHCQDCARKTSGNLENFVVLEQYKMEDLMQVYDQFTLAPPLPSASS
Protocol: as §1, §2, §3

[5] = test system: H3K27Me3 levels in HeLa cells; experiment: Immunofluorescence of global H3K27Me3 levels on overexpression in HeLa cells; type: cell-based; details: exogenous overexpression in HeLa cells
Protocol: For cell-based experiments, HEK 293T and HeLa cells were cultured at 37 °C and 5% CO2 in DMEM (Lonza) supplemented with 10% fetal bovine serum (FBS) (Invitrogen) and 1% Glutamax (Invitrogen). For microscopy, HeLa cells were seeded into 96-well clear bottom optical grade plates (BD Biosciences) at 8000 cells/well and allowed to settle overnight. Transfections were carried out the next day. For each well, 0.1 μg of plasmid and 0.25 μl of Lipofectamine 2000 (Invitrogen) were each incubated in 25 μl of Opti-MEM (Invitrogen) for 5 min at room temperature. The two solutions were then mixed gently but thoroughly and incubated for 20 min at room temperature. The mixture was added to the cells in 50 μl of fresh medium. Four hours later, the medium was changed, and the cells were incubated for a further 24 h before fixation. Cells were fixed in 4% (v/v) aqueous formaldehyde for 20 min, permeabilized in 0.5% Triton X-100 in phosphate-buffered saline (PBS) for 8 min, and blocked in 3% (w/v) FBS in PBS for 1 h with a PBS wash between each step. The primary antibodies were then added to the cells in blocking solution. […] Luciferase activity was measured using the Promega Dual-Luciferase Reporter Assay System on a Promega GloMax 20/20 luminometer. Readings were normalized to a Renilla luciferase control that was co-transfected with all samples. […]

UTY(KDM6C) [6] = experiment: Demethylation of histone peptides by MALDI-TOF MS, UTY(KDM6C); type: biochemical, human; details: UTY(KDM6C) 818–1347, 1 h at 37 °C
Protocol: as §1, §3
With catalytically active UTY(KDM6C) in hand, we then investigated whether a longer UTY(KDM6C) construct (residues 818–1347, herein UTY(KDM6C)) can act as a KDM. UTY(KDM6C) was incubated for 1 h at 37 °C with histone peptide fragments corresponding to known mono-, di-, and tri- lysine methylation sites of histone 3 (at Lys^4, Lys^9, Lys^27, and Lys^36) and histone 4 (at Lys^20) (Table 3). Demethylation was assessed by a mass spectrometric (MS) assay with mass shifts of −14 and −28 Da, corresponding to mono- and didemethylation, respectively. […] The predominant product was H3K27Me2, resulting from a single demethylation; a smaller amount of H3K27Me1 was observed as a result of didemethylation (Fig. 3C). Demethylation was dependent on the presence of Fe(II)/2OG.

KDM6A [7] = molecular target: T1, KDM6A; experiment: Demethylation of histone peptide by MALDI-TOF MS, KDM6A; type: biochemical; details: KDM6A positive control
Protocol: as §1, §3
(§4) With catalytically active UTY(KDM6C) in hand, we then investigated whether a longer UTY(KDM6C) construct (residues 818–1347, herein UTY(KDM6C)) can act as a KDM. UTY(KDM6C) was incubated for 1 h at 37 °C with histone peptide fragments corresponding to known mono-, di-, and tri- lysine methylation sites of histone 3 (at Lys^4, Lys^9, Lys^27, and Lys^36) and histone 4 (at Lys^20) (Table 3). Demethylation was assessed by a mass spectrometric (MS) assay with mass shifts of −14 and −28 Da, corresponding to mono- and didemethylation, respectively. […]

KDM6B = molecular target: T2, KDM6B (Homo sapiens, UniProt O15054); experiment: Demethylation of histone peptide by MALDI-TOF MS, KDM6B; type: biochemical; details: KDM6B positive control
T2 construct: KDM6B and KDM6A plasmids were used as described previously; made in house; host or cells: Escherichia coli BL21 (DE3)
T2 sequence (O15054 whole entry): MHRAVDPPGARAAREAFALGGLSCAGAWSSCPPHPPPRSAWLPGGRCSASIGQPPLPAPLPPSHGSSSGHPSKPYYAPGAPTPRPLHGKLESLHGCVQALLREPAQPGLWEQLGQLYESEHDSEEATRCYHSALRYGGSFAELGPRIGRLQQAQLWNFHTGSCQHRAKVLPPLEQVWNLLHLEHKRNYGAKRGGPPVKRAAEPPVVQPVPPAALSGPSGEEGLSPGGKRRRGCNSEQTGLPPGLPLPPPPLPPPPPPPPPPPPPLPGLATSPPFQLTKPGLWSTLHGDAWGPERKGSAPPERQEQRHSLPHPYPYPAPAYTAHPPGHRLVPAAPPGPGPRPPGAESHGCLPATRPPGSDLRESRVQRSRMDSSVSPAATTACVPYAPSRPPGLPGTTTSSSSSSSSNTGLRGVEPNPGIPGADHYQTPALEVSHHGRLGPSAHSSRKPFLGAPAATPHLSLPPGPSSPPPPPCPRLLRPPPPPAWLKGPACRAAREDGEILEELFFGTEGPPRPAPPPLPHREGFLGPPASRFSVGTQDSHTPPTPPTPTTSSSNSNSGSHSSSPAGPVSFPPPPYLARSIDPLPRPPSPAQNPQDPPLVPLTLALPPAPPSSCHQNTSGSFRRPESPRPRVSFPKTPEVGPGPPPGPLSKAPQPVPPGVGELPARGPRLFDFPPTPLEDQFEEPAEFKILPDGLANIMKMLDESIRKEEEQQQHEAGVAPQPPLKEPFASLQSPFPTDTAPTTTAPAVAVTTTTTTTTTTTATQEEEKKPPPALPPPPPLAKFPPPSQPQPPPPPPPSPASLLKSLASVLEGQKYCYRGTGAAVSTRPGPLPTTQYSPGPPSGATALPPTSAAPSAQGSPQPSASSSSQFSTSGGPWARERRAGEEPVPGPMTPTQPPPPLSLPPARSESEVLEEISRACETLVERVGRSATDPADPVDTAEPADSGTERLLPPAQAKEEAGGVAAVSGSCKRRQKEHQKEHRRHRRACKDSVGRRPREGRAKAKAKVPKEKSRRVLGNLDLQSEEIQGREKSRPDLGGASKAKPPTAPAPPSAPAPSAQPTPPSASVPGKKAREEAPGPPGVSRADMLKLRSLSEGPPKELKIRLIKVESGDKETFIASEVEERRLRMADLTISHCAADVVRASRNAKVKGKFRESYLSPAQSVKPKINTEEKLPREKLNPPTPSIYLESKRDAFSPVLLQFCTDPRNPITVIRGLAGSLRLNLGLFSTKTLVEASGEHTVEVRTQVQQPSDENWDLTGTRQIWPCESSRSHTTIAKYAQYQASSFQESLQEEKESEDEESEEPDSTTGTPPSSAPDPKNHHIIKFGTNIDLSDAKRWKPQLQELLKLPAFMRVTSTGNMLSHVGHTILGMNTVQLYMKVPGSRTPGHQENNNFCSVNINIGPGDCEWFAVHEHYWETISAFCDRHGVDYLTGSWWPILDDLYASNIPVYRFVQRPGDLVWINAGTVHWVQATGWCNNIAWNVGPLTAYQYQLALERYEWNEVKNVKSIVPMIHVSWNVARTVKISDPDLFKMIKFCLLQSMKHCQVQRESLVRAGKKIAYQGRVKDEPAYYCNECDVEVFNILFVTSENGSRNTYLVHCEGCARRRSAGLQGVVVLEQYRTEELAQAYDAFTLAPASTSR
Protocol: as §1, §3, §4

KDM6 = experiment: Demethylation of histone peptide by 1H NMR, KDM6; type: biochemical, human; details: KDM6 catalyzed
From the text: The total echo time was 48 ms.

Compound: O=C(O)CCC(=O)C(=O)O [2OG, 2-oxoglutarate]
succinate produced [1]: 7 ± 0.5 nmol
succinate produced [2]: 7 ± 0.5 nmol

potency rank among nine inhibitors (KDM6A [4]): most potent inhibitor
Compound: O=C(O)CCNc1cc(N2CCc3ccccc3CC2)nc(-c2ccccn2)n1 [GSK-J1]
potency rank among nine inhibitors (UTY(KDM6C) [3]): most potent inhibitor
inhibition of demethylation (UTY(KDM6C) [3]; H3K27Me3 peptide, MALDI MS): inhibition of UTY(KDM6C) activity by GSK-J1 was observed

Compound: FL WT KDM6B: full-length wild type KDM6B, positive control
change in global H3K27Me3 level [5]: a decrease was observed

demethylation (KDM6A [7]): demethylation was observed
demethylation (KDM6B): demethylation was observed
Compound: GGKAPRKQLATKAARKMe3SAPATGG [23-residue histone peptide containing H3K27Me3 (histone 3, 12–34)]
demethylation (UTY(KDM6C) [6]): catalyzes the demethylation
minor demethylation product (UTY(KDM6C) [6]; didemethylation, smaller amount): H3K27Me1
demethylation (UTY(KDM6C) [6]; listed as H3K27Me3 peptide (histone 3, 12–34)): demethylation was observed
predominant demethylation product (UTY(KDM6C) [6]; single demethylation): H3K27Me2

Compound: GGKAPRKQLATKAARKMe3SAPATGGV [24-residue histone peptide containing H3K27Me3]
demethylation (KDM6): KDM6 catalyzed demethylation
